In patent publication US6984729B1, “Oligonucleotides specific for hepatitis B virus” (priority 1995, dated 2006):
Strand notation (5' to 3'): a small letter for the sugar, then the base; units joined by * are phosphorothioate-linked, units joined directly phosphodiester-linked; [ ] holds rarer units or linkages, { } end groups; capitals alone tell only the bases. d = 2'-deoxy (DNA)

How the values were obtained:
[1] = system: internally 32P-labelled HBV precore-core RNA (epsilon region); test: RNase H cleavage of HBV precore-core RNA with noncontiguous oligonucleotides targeted to the epsilon region; format: biochemical, hepatitis B virus; conditions: for total RNA cleavage by RNase H: 10+10 and 12+12 noncontiguous oligonucleotides versus mixtures of arms, FIGS. 5A, 6A; for double cleavage (twice cleaved product) by RNase H on both sides of the epsilon stem: FIGS. 5B, 6B
Experimental: To determine whether an oligonucleotide of the invention is capable of successfully hybridizing to its target, an RNase H assay was performed (Frank et al. (1993) Proc. Int. Conf. Nucleic Acid Med. Applns. 1:4.14(abstract)). This assay is useful when a region of at least four contiguous nucleotides of the oligonucleotide is DNA and the target is RNA. Hybridization of the DNA portion of the oligonucleotide to the RNA target is identified by cleavage at that site by RNase H.
Noncontiguous oligonucleotides targeted to the HBV epsilon region have also been prepared and tested. The epsilon region is characterized by an RNA stem-loop structure consisting primarily of double-stranded RNA with a single-stranded bulge and loop of 6 bases each (FIG. 3). […] The ability of RNase H to cleave an RNA in this manner inflicts greater damage on the RNA than normal antisense oligodeoxynucleotides, while allowing the targeting of a biologically important region that is otherwise difficult to target due to its double-stranded nature.
Based on this information, several oligodeoxynucleotide phosphorothioates were prepared to test the hypothesis that hybridization by mode B is preferred when spanning the base of an RNA stem. 20mer and 24mer noncontiguous oligonucleotides (Table 2) were prepared as well as the 10mers and 12mers corresponding to the “arms” of the noncontiguous sequences.
If a single oligodeoxynucleotide were able to bind across the base of epsilon to sequences on either side of the stem, RNase H might cleave both sites and effectively cut out the epsilon stem-loop from the RNA. […] The 12+12 noncontiguous phosphorothioates show the same ability to bind across the base of the RNA stem. […] Double cleavage of the transcript in the presence of the mixture of 12mer arms (HBV71+HBV72) was much slower (FIG. 6B).
When oligonucleotides hybridizing via mode B were lengthened to allow strand invasion of the RNA stem, disruption of the stem-loop structure occurred. Oligonucleotides HBV89 (SEQ ID NO:39), HBV90 (SEQ ID NO:40), and HBV91 (SEQ ID NO:41) bind across the base of epsilon via mode B and strand invade on either the 5 side (HBV89) or the 3′ side (HBV90 and HBV91) of the RNA stem. HBV89M is an extension of HBV64M with ten 2′-O-methyl RNA residues invading the RNA stem on the 5′-side. Addition of these strand invading nucleotides increased the cleavage efficiency from 23% to 32% at 100 nM oligonucleotide.
Uniformally ^32P-labelled RNA was prepared from 1 μg linearized plasmid using the Ambion MEGAscript In Vitro Transcription Kit (Ambion, Inc., Austin, Tex.) according to the manufacturers' instructions, using [α-^32p] CTP as the radioactive label. The RNA was treated with RNase-free DNase I (Ambion, Inc., Austin, Tex.), extracted with phenol:chloroform: isoamyl alcohol (25:24:1) and purified from nucleotides and nucleosides on a G-50 Sephadex spin column (Boehringer-Mannheim, Indianapolis, Ind., or Pharmacia, Uppsala, Sweden).
In 9 μl 1× RNase H buffer (40 mM Tris-HCl pH 7.4, 4 mM MgCl2, 1 mM DTT), 20–100 nM labelled RNA and 100 nM oligonucleotides were preincubated for 15 min at 37° C. 1 μl RNase H (1 U/μl) was added, and the reaction was incubated at 37° C. for 10 min. The reactions were quenched and analyzed as described above.
Quantitation of the cleavage products was performed using software supplied with the Phosphorimager (Molecular Dynamics, Sunnyvale, Calif., or Bio-Rad Laboratories, Hercules, Calif.). “Counts” were determined by drawing a box around the band of interest and subtracting the background determined with a box drawn nearby. Counts in a product band were compared to total counts in the lane above that band to determine % cleavage.

HBVpol RNA = test: In vitro translation assay (wheat germ translation system); format: biochemical, hepatitis B virus; conditions: FIG. 8
Experimental: The oligonucleotides of the invention can be assayed for antisense inhibitory activity with a number of different assays. For example, an in vitro translation assay can be used to test antisense activity in which an antisense oligonucleotide can inhibit synthesis of a protein product encoded by the targeted mRNA. In such an assay, oligonucleotides targeted to the polymerase gene were tested against both target and an unrelated control RNA in the wheat germ translation system. […] Results are represented graphically in FIG. 7.
This assay was also used to compare the activity of mismatched oligonucleotides to the activity of the parent oligonucleotide. Four such oligonucleotides, all derivatives of HBVpol-2 (HBVpol-A, SEQ ID NO:46; HBVpol-B, SEQ ID NO:47; HBVpol-C, SEQ ID NO:48, HBVpol-D, SEQ ID NO:49) (Table 1) were synthesized and tested in the assay.
The 5′ end of the polymerase gene (pol) open reading frame, nt 2292–2942, was amplified by the PCR from the full length HBV clone pCH3/3097 (Bartenschlager et al. (1992) Nucleic Acids Res. 20:195–202). The 5′ amplification primer AS10 (SEQ ID NO:55) encoded an EcoRI site. The 3′ amplification primer AS11 (SEQ ID NO:56) both encoded a PstI site and introduced a stop codon in the place of a leucine codon at position 2942–2944. The PCR product was digested with EcoRI and PstI (Promega, Madison, Wis.) and inserted into similarly digested plasmid vector pGEM-3z (Promega, Madison, Wis.). The resulting recombinant plasmid was recut with PstI and an oligonucleot-ide dA:dT(30) linker was introduced.
B. In vitro Transcription of RNA pHBVpol and a second plasmid pHSVProt were linearized with HindIII (Promega, Madison, Wis.), RNA was in vitro transcribed from each construct using T7 Cap-Scribe reagents (Boehringer-Mannheim, Indianapolis, Ind.) employed as per the manufacturer's instructions. The quantity and quality of the RNA's was assessed on a 2% agarose/formaldehyde gel. The control HSVProt RNA was arbitrarily diluted 10 fold to 200 ng/μl and stored in 20 μl aliquots at −80° C.
In this series of experiments only phosphodiester (PO) oligonucleotides were used. 5 μM, 2.5 μM, and 1.25 μM stocks of each of HBVpol-1, HBVpol-2, HBVpol-3, and randomer were made up and stored frozen. Reactions were set up using 100 ng HBVpol and 200 ng pHSVprot. The volume of water in the translation master mix was reduced to allow the addition of 1 μl of each dilution of each oligonucleotide to the reactions whilst maintaining the final volume at 12 μl. This corresponds to final oligonucleotide concentrations of approximately 400 nM, 200 nM, and 100 nM.

[2] = system: HBV genomes in the supernatants from HepG2.2.15 cells; test: Kinetic PCR HBV anti-viral assay on supernatants from HepG2.2.15 cells; format: cell-based, hepatitis B virus; conditions: copy number of HBV genomes in HepG2.2.15 supernatants, day 10
Experimental: In addition to Southern hybridizations, kinetic PCR was performed to assay the supernatants from the HepG2.2.15 cells. This procedure was carried out as described by Higuchi et al. (Biotechnol. (1993) 11:1026–1030). All PCRs were carried out with two sets of external controls which consisted of a dilution series of a known concentration of plasmid DNA that contained the HBV core gene amplified with the same primer set. These controls generated a standard curve that was used to calculate the copy number of HBV genomes in the supernatants from cells exposed to the various dilutions of compound.
The anti-viral assay was performed using HepG 2.2.15 cells (Sells et al. ([…]) Proc. Natl. Acad. Sci. (USA) 84:1005–1009) seeded at a density of 1×10^5 per well in 24 well plates. The cells were grown to confluence and allowed to stabilize for 2–3 days in RPMI media (supplemented with 10% fetal calf serum (FCS), 2 mM glutamine and penstrep (Life Technologies Ltd., Paisley, Scotland) prior to the addition of the oligonucleotide (defined as day 0). Six dilutions (10, 5, 1, 0.5, 0.1, and 0 μM) were set up in duplicate for each of the antisense oligonucleotides. In each assay run, the nucleoside analog, β-L-(2R,5S)-1,3 oxathiolanyl cytosine (3TC) (Glaxo, Greenford, U.K.) was included as positive control at 0.5, 0.1, 0.075, 0.05, and 0.01 and 0 μM in duplicate. Oligonucleotide was added to 1 ml of RPMI media (supplemented with 3% FCS, 2 mM glutamine and penstrep) at each of the indicated dilutions. At days 2, 4 and 7, the old media was removed and replaced with fresh media containing compound. At day 10, the supernatants were harvested, clarified by low speed centrifugation, prior to the addition of Triton X100 (Sigma, St. Louis, Mo.) and tri-n-butyl phosphate to give a final concentration of 1%. The samples were then heated to 70° C. for 20 minutes to disrupt the viral particles.
Following this treatment, the viral particles were subject to analysis by kinetic PCR. The primers RJ407 (SEQ ID NO:51) and RJ431 (SEQ ID NO:52) were used to detect a 205 bp fragment of the core gene. Kinetic PCR was performed essentially as described by Higuchi et al. (Biotechnol. (1993) 11:1026–1030). Briefly, the PCR reactions were set up under standard conditions except that ethidium bromide was included at a concentration of 4 μg/ml. […] A kinetic PCR analysis was performed by plotting the average intensity of fluorescence from each PCR sample after each annealing/extension cycle against the cycle number. The original template concentration can be calculated by utilizing a standard fluorescence curve generated by templates of known concentration.

AGGCAGAGGTTAAGGGTCGA (antisense dA*dG*dG*dC*dA*dG*dA*dG*dG*dT*dT*dA*dA*dG*dG*dG*dT*dC*dG*dA) [HBV66]
total RNA cleavage by RNase H [1]: activate RNase H cleavage of the transcript more effectively than the mixture of 10mer arms
double cleavage (twice cleaved product) by RNase H on both sides of the epsilon stem [1]: greater after 10 minutes than in the presence of HBV68

AGAGATGATTTAAGGGTCGATGTCCATGCC (chemistry not given here) [HBV90]
strand invasion of the RNA stem evidenced by RNase H cleavage within the stem near the core initiator [1]: able to strand invade

GATAGGGGCATTTGGTGcTC (antisense dG*dA*dT*dA*dG*dG*dG*dG*dC*dA*dT*dT*dT*dG*dG*dT*dG*dC*dT*dC) [HBVpol-C, single mismatch derivative of HBVpol-2]
antisense activity of mismatched oligonucleotides compared to parent HBVpol-2 (HBVpol RNA): varying degrees of reduction in activity

AGGCAGAGGTTAAGGGTCGATGTCCATGCC (phosphorothioate, further chemistry not given here) [HBV91]
strand invasion of the RNA stem evidenced by RNase H cleavage within the stem near the core initiator [1]: able to strand invade

TAAGGGTCGAAGGCAGAGGT (antisense dT*dA*dA*dG*dG*dG*dT*dC*dG*dA*dA*dG*dG*dC*dA*dG*dA*dG*dG*dT) [HBV68]
total RNA cleavage by RNase H [1]: activate RNase H cleavage of the transcript more effectively than the mixture of 10mer arms

TATAAGGGTCGAAGGCAGAGGTGA (antisense dT*dA*dT*dA*dA*dG*dG*dG*dT*dC*dG*dA*dA*dG*dG*dC*dA*dG*dA*dG*dG*dT*dG*dA) [HBV79]
total RNA cleavage by RNase H [1]: equal
double cleavage (twice cleaved product) by RNase H on both sides of the epsilon stem [1]: efficiently activate RNase H cleavage on both sides of the stem after only 1.5 minutes

GACAUGAACAAGAGAUGAUUTAAGGGTCGA (RNA letters in 5' part, chemistry not given here) [HBV89M]
cleavage efficiency ([1]; 100 nM oligonucleotide, RNase H): 32%

GATAGGGGCcTTTGGTGGTC (antisense dG*dA*dT*dA*dG*dG*dG*dG*dC*dC*dT*dT*dT*dG*dG*dT*dG*dG*dT*dC) [HBVpol-B, single mismatch derivative of HBVpol-2]
antisense activity of mismatched oligonucleotides compared to parent HBVpol-2 (HBVpol RNA): varying degrees of reduction in activity

GAcAGGGGCATTTGGTGGTC (antisense dG*dA*dC*dA*dG*dG*dG*dG*dC*dA*dT*dT*dT*dG*dG*dT*dG*dG*dT*dC) [HBVpol-A, single mismatch derivative of HBVpol-2]
antisense activity of mismatched oligonucleotides compared to parent HBVpol-2 (HBVpol RNA): varying degrees of reduction in activity

GAcAGGGGCcTTTGGTGcTC (antisense dG*dA*dC*dA*dG*dG*dG*dG*dC*dC*dT*dT*dT*dG*dG*dT*dG*dC*dT*dC) [HBVpol-D, three mismatches, derivative of HBVpol-2, reference compound]
antisense activity of mismatched oligonucleotides compared to parent HBVpol-2 (HBVpol RNA): abrogated antisense activity

GAGGTGAAAAAGTTGCATGG (antisense dG*dA*dG*dG*dT*dG*dA*dA*dA*dA*dA*dG*dT*dT*dG*dC*dA*dT*dG*dG) [HBV48]
IC50 [2]: 0.7 µM

TCGATGTCCATGCCCCAAAG (phosphorothioate, further chemistry not given here) [HBV4]
IC50 [2]: 1.2 µM
